Data published in patent US20020065303A1, “Bivalent phenylene inhibitors of factor Xa” (priority 2000, published 2002).

What was measured:
Type in all cases: biochemical
[1] = target: Thrombin (Homo sapiens, UniProt P00734); test: Thrombin amidolytic assay (chromogenic substrate Chromozym TH); conditions: room temperature, pH 7.5, 5 min preincubation; read-out: Inhibitory Activity (IC50) Thrombin IIa
Protocol: (§1) The compounds of the present invention are dissolved in buffer to give solutions containing concentrations such that assay concentrations range from about 0 to about 100 μM. In the assays for thrombin, prothrombinase and factor Xa, a synthetic chromogenic substrate is added to a solution containing test compound and the enzyme of interest and the residual catalytic activity of that enzyme is determined spectrophotometrically. The IC50 of a compound is determined from the substrate turnover. The IC50 is the concentration of test compound giving about 50% inhibition of the substrate turnover.
(§2) The factor Xa and thrombin assays are performed at room temperature, in 0.02 M Tris.HCl buffer, pH 7.5, containing 0.15 M NaCl. The rates of hydrolysis of the para-nitroanilide substrate S-2765 (Chromogenix) for factor Xa, and the substrate Chromozym TH (Boehringer Mannheim) for thrombin following preincubation of the enzyme with inhibitor for 5 minutes at room temperature, and are determined using the Softmax 96-well plate reader (Molecular Devices), monitored at 405 nm to measure the time dependent appearance of p-nitroaniline.

[2] = target: Prothrombinase (Homo sapiens, UniProt P00742); test: Prothrombinase inhibition assay, plasma free system; conditions: factor Xa 0.5 nM, factor Va 2 nM, PS:PC, 5 min preincubation; read-out: Inhibitory Activity (IC50) Prothrombinase IIase
Prothrombinase, sequence (P00742 235-488 limits assumed): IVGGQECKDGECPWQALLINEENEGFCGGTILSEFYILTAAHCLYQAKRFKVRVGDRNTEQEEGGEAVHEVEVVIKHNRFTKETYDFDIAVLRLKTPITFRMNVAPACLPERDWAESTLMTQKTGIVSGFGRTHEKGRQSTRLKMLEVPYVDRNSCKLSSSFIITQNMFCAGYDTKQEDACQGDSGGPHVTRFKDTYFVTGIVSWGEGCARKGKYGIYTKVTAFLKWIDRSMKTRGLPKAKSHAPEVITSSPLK
Prothrombinase, sequence (P00742 41-179 limits assumed): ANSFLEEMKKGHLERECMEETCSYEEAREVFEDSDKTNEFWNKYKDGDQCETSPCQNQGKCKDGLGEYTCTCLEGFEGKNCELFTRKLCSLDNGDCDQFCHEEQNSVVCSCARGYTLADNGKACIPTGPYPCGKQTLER
Prothrombinase, sequence (P12259 29-737 partner limits assumed): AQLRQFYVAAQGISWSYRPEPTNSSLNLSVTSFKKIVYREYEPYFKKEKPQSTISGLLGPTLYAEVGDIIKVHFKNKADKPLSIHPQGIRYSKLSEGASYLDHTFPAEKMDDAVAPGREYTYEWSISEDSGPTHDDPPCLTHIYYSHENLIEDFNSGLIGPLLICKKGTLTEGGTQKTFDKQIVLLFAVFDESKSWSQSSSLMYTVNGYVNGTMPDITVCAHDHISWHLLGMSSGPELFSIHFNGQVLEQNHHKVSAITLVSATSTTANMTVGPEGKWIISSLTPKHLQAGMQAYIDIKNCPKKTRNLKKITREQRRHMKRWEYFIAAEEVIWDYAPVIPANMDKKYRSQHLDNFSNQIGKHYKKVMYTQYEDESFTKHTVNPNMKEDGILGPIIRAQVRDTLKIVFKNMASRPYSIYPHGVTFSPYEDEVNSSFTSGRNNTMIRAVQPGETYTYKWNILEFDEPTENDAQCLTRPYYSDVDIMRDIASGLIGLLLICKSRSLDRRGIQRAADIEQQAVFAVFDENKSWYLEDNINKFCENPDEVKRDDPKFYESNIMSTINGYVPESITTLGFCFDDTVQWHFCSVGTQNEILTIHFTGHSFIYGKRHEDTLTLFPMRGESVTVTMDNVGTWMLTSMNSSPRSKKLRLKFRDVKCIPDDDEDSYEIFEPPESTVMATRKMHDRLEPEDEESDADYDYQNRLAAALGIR
Prothrombinase, sequence (P12259 1574-2224 partner limits assumed): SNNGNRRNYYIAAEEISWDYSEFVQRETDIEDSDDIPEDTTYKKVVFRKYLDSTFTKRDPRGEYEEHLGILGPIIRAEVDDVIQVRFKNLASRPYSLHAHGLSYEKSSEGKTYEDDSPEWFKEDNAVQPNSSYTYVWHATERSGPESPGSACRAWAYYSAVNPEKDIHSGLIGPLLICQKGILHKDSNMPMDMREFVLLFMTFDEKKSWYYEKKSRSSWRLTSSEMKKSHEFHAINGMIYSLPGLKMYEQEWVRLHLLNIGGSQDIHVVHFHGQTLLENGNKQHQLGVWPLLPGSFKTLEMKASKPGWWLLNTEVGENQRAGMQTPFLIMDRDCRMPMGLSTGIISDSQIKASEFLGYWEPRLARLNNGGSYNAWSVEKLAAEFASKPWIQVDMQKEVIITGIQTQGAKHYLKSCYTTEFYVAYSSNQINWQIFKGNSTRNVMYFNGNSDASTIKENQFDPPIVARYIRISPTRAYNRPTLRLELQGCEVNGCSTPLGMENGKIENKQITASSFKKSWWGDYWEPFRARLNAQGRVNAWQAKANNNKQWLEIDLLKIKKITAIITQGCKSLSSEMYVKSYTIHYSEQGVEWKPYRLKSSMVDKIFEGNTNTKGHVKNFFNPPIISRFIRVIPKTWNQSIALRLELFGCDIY
Protocol: as §1
The prothrombinase inhibition assay is performed in a plasma free system with modifications to the method described by Sinha, U. et al., Thromb. Res., 75, 427-436 (1994). Specifically, the activity of the prothrombinase complex is determined by measuring the time course of thrombin generation using the p-nitroanilide substrate Chromozym TH. The assay consists of preincubation (5 minutes) of selected compounds to be tested as inhibitors with the complex formed from factor Xa (0.5 nM), factor Va (2 nM), phosphatidyl serine:phosphatidyl choline (25:75, 20 μM) in 20 mM Tris.HCl buffer, pH 7.5, containing 0.15 M NaCl, 5 mM CaCl2 and 0.1% bovine serum albumin. […] The rate of substrate cleavage is monitored at 405 nm for two minutes. […]

[3] = target: Factor Xa (Homo sapiens, UniProt P00742); test: Factor Xa amidolytic assay (chromogenic substrate S-2765); conditions: room temperature, pH 7.5, 5 min preincubation; read-out: Inhibitory Activity (IC50) Factor Xa Xa
Factor Xa, sequence (P00742 235-488 limits assumed): as the sequence (P00742 235-488 limits assumed) above
Factor Xa, sequence (P00742 41-179 limits assumed): as the sequence (P00742 41-179 limits assumed) above
Protocol: as §1, §2

| Structure (SMILES) | IC50 [1] | IC50 [2] | IC50 [3] |
| --- | --- | --- | --- |
| CC(=N)N1CCC(Oc2ccc(C(=O)NCc3cccc(C(=N)N)c3)cc2)CC1 | 139 µM | 20 µM | 0.059 µM |
| COC(=O)C(Cc1cccc(C(=N)N)c1)NC(=O)c1ccc(OC2CCN(C(C)=N)CC2)cc1 (stereo not drawn) | 270 µM | 4 µM | 0.201 µM |
